Source: PMC7177633, “Effective Cellular Transport of Ortho-Halogenated Sulfonamide Derivatives of Metformin Is Related to Improved Antiproliferative Activity and Apoptosis Induction in MCF-7 Cells” (International Journal of Molecular Sciences, 2020)
Several values for one entry are separate records, joined by “and”; a condition that tells them apart may be missing. Equal values may be shown once. Read-outs that look alike come from different tables or passages of the source.

Tests used:
[1] = tested on: MCF-7 cells; assay: Uptake in the presence of OCT and MATE inhibitors, MCF-7 cells; format: in vitro ADME, human
Protocol: (§1) The uptake of sulfonamide derivatives of metformin (1–9) in MCF-7 and MDA-MB-231 cells was studied also in the presence of disopyramide, cimetidine (OCT1 and 3 inhibitors), lopinavir (OCT and PMAT inhibitor) and methenamine (MATE and OCT2 inhibitors). The cells were incubated (37 °C, 10 min) with compounds 1–9 at concentrations of 400 and 800 μmol/L and inhibitors (disopyramide, cimetidine, lopinavir or methenamine) in 250 μL of prewarmed HBSS buffer. The protocol of determination of the compound concentration was as described above.

[2] = tested on: HUVECs; set-up: method as in PMID 31776031; conditions: concentration range 10–3000 µmol/L; read-out: IC50 viability of HUVECs; cited from earlier work
[3] = tested on: MDA-MB-231 cells; assay: Cell viability WST-1 assay, MDA-MB-231; format: cell-based; conditions: Homo sapiens, MDA-MB-231; WST-1, 24 h, mean ± SD (n = 6–8); read-out: IC50 inhibition of MDA-MB-231 cells' viability
Protocol: (§2) The viability of MCF-7 and MDA-MB-231 cells was determined using a colorimetric WST-1 assay (Takara, Takara Bio Europe, Saint-Germain-en-Laye, France). Both cell lines were seeded at a density of 1 × 10^4 per well on 96-well plates and were cultured for 24 h to obtain 70% confluence. The following day, the cells were treated with various concentrations of compounds 1–9 diluted in the cell culture medium ([…]). The cells were incubated with tested compounds or pure medium (control) for 24 h (37 °C, 5% CO2). Afterwards, the cells were washed with 100 μL of culture medium, and then, the reagent dissolved in the medium was added (100 μL). The plates were incubated at the standard condition for 1.5 h, and the absorbance was read at 450 nm using a microplate reader (iMARK, Bio-Rad, Bio-Rad Laboratories Inc., Hercules, CA, USA). […] The results of samples treated with the test compounds were expressed as a percentage of the control samples. The data were presented as mean ± standard deviation (SD), n = 8. IC50 values (the concentration of the tested compound that inhibited cell growth by 50%) were calculated using a concentration-response curve (GraphPad Prism, Software, San Diego, CA, USA).
(§3) The concentrations contributing to the 50% of cell growth inhibition (IC50) were calculated using nonlinear regression analysis (fitting the curve to log (concentration) vs. cellular response).

[4] = tested on: MDA-MB-231 cells; assay: Uptake in the presence of OCT and MATE inhibitors, MDA-MB-231 cells; format: in vitro ADME, human
Protocol: as §1

[5] = tested on: MCF-7 cells; assay: Cell viability WST-1 assay, MCF-7; format: cell-based; conditions: Homo sapiens, MCF7; WST-1, 24 h, mean ± SD (n = 6–8); read-out: IC50 inhibition of MCF-7 cells' viability
Protocol: as §2, §3

[6] = tested on: OCTs; assay: Inhibition of [14C]choline uptake in MDA-MB-231 cells (competitive inhibition assay); format: cell-based, human
Protocol: (§4) The following day, after removal of the culture medium, the cells were carefully washed with prewarmed HBSS (Hanks’ balanced salt solution) containing 125 mM NaCl, 4.8 mM KCl, 1.2 mM MgSO4, 1.2 mM KH2PO4, 1.3 mM CaCl2, 5.6 mM glucose and 25 mM HEPES (pH 7.4). […] Then, the cells were washed three times with ice-cold HBSS (500 μL) and were lysed with 250 μL of 0.1-M NaOH in the ice bath, and the lysate was mixed with 1.0 mL of an emulsifier safe cocktail (PerkinElmer, Waltham, MA, USA). The radioactivity was measured by liquid scintillation counting (MicroBeta^2 counter, PerkinElmer, Waltham, MA, USA). The studies were carried out with the use of at least three replicates from the same cell passage.

[7] = tested on: MCF-7 cells; assay: Cellular uptake of metformin sulfonamides in MCF-7 cells (HPLC); format: in vitro ADME, human
Protocol: (§5) The uptake of metformin sulfonamides (1–9) in MCF-7 and MDA-MB-231 cells was studied by incubation of the cells with 10−3000 μmol/L of compounds in 250 μL of prewarmed HBSS buffer at 37 °C for 10 min. Subsequently, the cells were then washed three times with 500 μL of ice-cold HBSS and lysed with 250 μL of 0.1-M NaOH. The samples were collected, centrifuged (5 min, 1400 rpm) and the supernatants were analyzed by the HPLC method. The concentration of each compound in the cells was calculated on the basis of the standard curve prepared by spiking known amounts of every compound on the cell layers in 250 μL of 0.1-M NaOH.
(§6) The concentration of the studied sulfonamides (1–9) was assessed using the HPLC system, consisting of an Agilent 1100 binary pump (Agilent Technologies Inc., Wilmington, DE, USA), an 1100 micro-vacuum degasser, an HP 1050 autosampler and an HP 1050 variable wavelength detector (operated at 235 nm). The chromatographic separations of compounds 1–9 were conducted on an Agilent Zorbax SB-C18 analytical column (4.6 mm × 150 mm, 5 μm) using an isocratic elution of water containing 0.1% formic acid (pH ca. 3.0) and acetonitrile containing 0.1% formic acid with a changing ratio, depending on the compound. The analyses were conducted at room temperature (RT). The detailed procedure of chromatographic analysis was described in our previous paper. The studies were conducted in quadruplicates.
(§7) The protein concentrations in representative wells of each plate were assessed using a Bio-Rad protein assay according to the Bradford method (EnVision, PerkinElmer, Inc., Waltham, MA, USA).

[8] = tested on: MDA-MB-231 cells; assay: Cellular uptake of metformin sulfonamides in MDA-MB-231 cells (HPLC); format: in vitro ADME, human
Protocol: as §5, §6, §7

[9] = tested on: AoSMC; set-up: method as in PMID 31776031; conditions: concentration range 10–3000 µmol/L; read-out: IC50 viability of AoSMCs; cited from earlier work
[10] = tested on: MDA-MB-231 cells; conditions: metformin, cited from earlier work
[11] = tested on: MCF-7 cells; conditions: metformin, cited from earlier work
[12] = tested on: OCT3-BT20 cells; set-up: method as in PMID 26669511; conditions: OCT3-overexpressing BT-20 vs BT-20; cited from earlier work
[13] = tested on: OCTs; assay: Inhibition of [14C]choline uptake in MCF-7 cells (competitive inhibition assay); format: cell-based, human; conditions: 2400 μmol/L
Protocol: as §4

[14] = tested on: MDA-MB-231 cells; set-up: method as in PMID 30913467; conditions: up to 3000 µmol/L; cited from earlier work
[15] = tested on: MCF-7 cells; set-up: method as in PMID 30913467; conditions: up to 3000 µmol/L; cited from earlier work
[16] = compound and inhibitor 400 and 800 µmol/L, 10 min, 37 °C
[17] = summary from uptake with inhibitors
[18] = 800 μmol/L, 10 min incubation, 37 °C
[19] = Eadie-Hofstee analysis, transporter I
[20] = Eadie-Hofstee analysis, transporter II
[21] = reported previously, ref Markowicz-Piasecka et al., 2019

Structure (SMILES): CN(C)C(=N)N=C(N)NS(=O)(=O)c1ccc(Cl)cc1 [Compound 3]
- uptake in the presence of cimetidine, MCF-7 [1, 16]: did not change
- uptake in the presence of disopyramide, MCF-7 [1, 16]: did not change
- uptake in the presence of lopinavir, MCF-7 [1, 16]: did not change
- uptake in the presence of methenamine, MCF-7 [1, 16]: significant decrease
- interactions with OCT, PMAT and MATE1 transporters, MCF-7 [1, 17]: OCT1,MATE1
- IC50 [2]: 1770 ± 120 µM
- IC50 [3]: 1040 ± 134 µM
- uptake in the presence of disopyramide, MDA-MB-231 [4, 16]: significantly lower uptake
- uptake in the presence of lopinavir, MDA-MB-231 [4, 16]: increased uptake
- uptake in the presence of methenamine, MDA-MB-231 [4, 16]: increased uptake
- interactions with OCT, PMAT and MATE1 transporters, MDA-MB-231 [4, 17]: OCT1, PMAT, MATE1
- IC50 [5]: 1430 ± 135 µM
- IC50 ([6]; mean ± SD (n = 3)): 3760 ± 124 µM
- uptake into MCF-7 cells [7, 18]: 0.84 ± 0.06 nmol/min/mg protein
- Vmax, transporter I, MCF-7 [7, 19]: 1.61 nmol/min/mg and 1.614 ± 0.11 nmol/min/mg
- Km ([7]; Eadie-Hofstee analysis, transporter I, read-out: Km, transporter I, MCF-7): 0.813 ± 0.0865 mM
- Vmax, transporter II, MCF-7 [7, 20]: 10.76 ± 0.88 nmol/min/mg
- Km ([7]; Eadie-Hofstee analysis, transporter II, read-out: Km, transporter II, MCF-7): 8.81 ± 0.791 mM
- Vmax MCF-7 (Michaelis Menten curves) ([7]; Michaelis-Menten curve): 5.073 ± 1.96 nmol/min/mg
- Km ([7]; Michaelis-Menten curve, read-out: Km MCF-7 (Michaelis Menten curves)): 3.58 ± 1.71 mM
- uptake into MDA-MB-231 cells [8, 18]: 0.42 ± 0.15 nmol/min/mg protein
- Vmax, transporter I, MDA-MB-231 [8, 19]: 1.390 ± 0.23 nmol/min/mg
- Km ([8]; Eadie-Hofstee analysis, transporter I, read-out: Km, transporter I, MDA-MB-231): 2.37 ± 0.48 mM
- Vmax, transporter II, MDA-MB-231 [8, 20]: 2.20 ± 0.41 nmol/min/mg
- Km ([8]; Eadie-Hofstee analysis, transporter II, read-out: Km, transporter II, MDA-MB-231): 4.67 ± 0.932 mM
- transport efficacy (Vmax/Km) in MCF-7 relative to MDA-MB-231 ([8]; fold lower in MDA-MB-231 than in MCF-7): 2.4–3.2 fold
- IC50 [9]: 1890 ± 110 µM

Structure (SMILES): CN(C)C(=N)N=C(N)N [Metformin]
- Vmax MDA-231 cells (Michaelis Menten curves) [10, 21]: 0.718 ± 0.181 nmol/min/mg
- Km ([10]; reported previously, ref Markowicz-Piasecka et al., 2019, read-out: Km MDA-231 cells (Michaelis Menten curves)): 3.38 ± 0.952 mM
- uptake into MDA-MB-231 cells [10]: 0.117 ± 0.010 nmol/min/mg of proteins
- maximal inhibition of [14C] choline uptake ([6]; 2400 μmol/L): 29.9%
- Vmax MCF-7 (Michaelis Menten curves) [11, 21]: 0.801 ± 0.296 nmol/min/mg
- Km ([11]; reported previously, ref Markowicz-Piasecka et al., 2019, read-out: Km MCF-7 (Michaelis Menten curves)): 5.58 ± 1.56 mM
- uptake into MCF-7 cells [11]: 0.107 ± 0.006 nmol/min/mg of proteins
- metformin uptake in OCT3-BT20 cells relative to BT-20 cells [12]: more than 13 fold
- maximal inhibition of [14C] choline uptake [13]: 34.3%
- effect on MDA-MB-231 growth [14]: did not significantly affect
- effect on MCF-7 growth [15]: did not significantly affect
